Data taken from patent publication US12319699B2, “L-proline sulfonamide derivatives comprising pyrazolo[4,3-e]tetrazolo[4,5-b][1,2,4]triazine system, method of manufacturing thereof, uses thereof and pharmaceutical composition comprising the same” (UNIWERSYTET MEDYCZNY W BIALYMSTOKU, priority 2018, dated 2025).

How the values were obtained:
[1] = test system: HT-29 xenografts; test: Tumour growth in mice with xenografts; type: in vivo; conditions: mice with HT-29 xenografts
Method: (§1) The second stage of the study was carried out with the use of animals (Cby.Cg-Foxn1nu/J mice, females) (Jackson Laboratory, USA). […] All procedures were carried out in accordance with the guidelines for experiments in animals and a protocol approved by the Local Ethics Committee (Resolution No. August 2018).
(§2) The studies in in vivo conditions were carried out in the Centre of Experimental Medicine of the Medical University of Bialystok. It is a modern institution which ensures a high standard of SPF barrier animal facilities. Animals are housed in a room with […], in the optimal temperature of 22° C., 55% air humidity, with fifteen air changes per hour (with the speed not exceeding 0.3 m/s) and 12:12 light-dark cycle. The animals were under 24-hour monitoring and period controls of both the animals (in accordance with FELASA recommendations) and the rooms in which they were housed were carried out. The Centre for Experimental Medicine has a Good Laboratory Practice (GLP) certificate.
(§3) During the initial studies the mice were divided into two groups.
(§4) After the first week, when tumours reached about 5 mm in diameter, i.e. the size which according to literature data is suitable for carrying out further steps of examination, the mice began receiving subcutaneous injections of the sulfonamide derivative of 7-methyl-5-phenyl-pyrazolo[4,3-e]tetrazolo[4,5-b][1,2,4]triazine comprising 4-hydroxy-L-proline methyl ester in the sulfonamide group according to the invention (the compound of Formula 3) in a dose of 50 μg/kg once a day for two weeks. The moment of administration of the compound was marked as time 0. The control group was constituted by animals that received subcutaneously 50 μl of 10% DMSO in PBS (the solvent for the compound of Formula 3). Before the administration of the sulfonamide derivative of 7-methyl-5-phenyl-pyrazolo[4,3-e]tetrazolo[4,5-b][1,2,4]triazine comprising 4-hydroxy-L-proline methyl ester in the sulfonamide group according to the invention (time 0), after the first week (time 1) and the second week (time 2) of administering this compound, the sizes of tumours were measured in two dimensions by means of a digital calliper. The volume of tumours was expressed in mm3 in accordance with the calculations that were described by Feldman et al. (Feldman J P. Goldwasser R. Mark S. Schwartz J. Orion I. JAQM. 2009.4.455-462).

[2] = test system: DLD-1 xenografts; test: Tumour growth in mice with xenografts; type: in vivo; conditions: mice with DLD-1 xenografts
Method: as §1, §2, §3, §4

[3] = 50 μg/kg s.c. once a day for two weeks, p<0.05
[4] = 50 μg/kg s.c. once a day, after the second week, p<0.001

**Q.** With COC(=O)C1CC(O)CN1S(=O)(=O)c1ccc(-n2nc(C)c3nc4nnnn4nc32)cc1 (stereo not shown) [Compound of Formula 3, Methyl 4-hydroxy-1-[4-(7-methyl-5H-pyrazolo[4,3-e]tetrazolo[4,5-b][1,2,4]triazyn-5-yl)phenylsulfonyl]pyrrolidine-2-carboxylate] as the molecule, how does the “tumour weight post mortem vs control” value [1, 3] read?
**A.** The value was “Statistically significant reduction in tumour weight”.

**Q.** And the “inhibition of tumour growth (tumour volume) vs control” value [1, 4]?
**A.** Its value is “statistically significant inhibition of tumour growth”.

**Q.** What about the “tumour weight post mortem vs control” value [2, 3] of the same molecule?
**A.** The value was “Statistically significant reduction in tumour weight”.

**Q.** What about the “inhibition of tumour growth (tumour volume) vs control” value [2, 4] of the same molecule?
**A.** Its value is “statistically significant inhibition of tumour growth”.
